Experimental data taken from patent US12678400B2, “Implantable devices for drug delivery with reduced burst release” (TITAN PHARMACEUTICALS, INC., priority 2016, dated 2026).

Assay: Particle size of spray-dried porogen powders by optical microscope
Type: physicochemical
Settings: spray dried from ethanol solution
Description: Citric acid and benzoic acid were spray dried from ethanol solution (10% w/v solids) using a ProCepT model 4M8 system. The citric acid was collected in a single fraction in about 65% yield, while the benzoic acid was collected in two fractions with a total yield of around 55%. The powders were characterized for particle size and morphology using an Olympus BX60 optical microscope. […] The two preparations of benzoic acid differed primarily by the preponderance of ribbon-like particles in the second fraction. The citric acid powder blend was appreciably more dense than the benzoic acid powder blends, and the latter required more careful sweeping of the feeder hopper to promote conveyance. However, the ultimate extrusion, molding, and physical handling characteristics were similar between the blends.

SMILES	Particle size
O=C(O)c1ccccc1 [benzoic acid]	30-150 μm
O=C(O)CC(O)(CC(=O)O)C(=O)O [citric acid]	10-20 μm
